Measured values published in ChEMBL document CHEMBL5352503, “Nonpeptidic Oxazole-Based Prolyl Oligopeptidase Ligands with Disease-Modifying Effects on α-Synuclein Mouse Models of Parkinson's Disease” (J Med Chem, 2023).

Target: Alpha-synuclein (Homo sapiens) (UniProt P37840)
Test: Inhibition of alpha-synuclein (unknown origin) dimerization transfected in mouse Neuro2a cells assessed as reduction in aggregation at 10 uM incubated for 4 hrs by split Gaussia luciferase-based assay relative to control; values are per cent of control

| residual activity | Compound |
| --- | --- |
| 100% | COc1cc(CCc2nc(C)c(N3CCC[C@H]3C#N)o2)cc(OC)c1 |
| 100% | COc1ccc(CCCc2nc(C)c(N3CCC[C@H]3C#N)o2)cc1 |
